Reference: patent US7608688B2, “HIV-1 protein associated with broadly reactive neutralizing antibody response” (The Henry M. Jackson Foundation for the Advancement of …, priority 1998, dated 2009)
≈ marks a conversion by molar mass, not a printed value. Like-named read-outs stand apart in the source and are kept apart here. Bridge positions count the residues as written; N and C are the ends. Peptide text beside a SMILES is read from it.

Test: Solubility of V3 peptides
Assay type: physicochemical
Details: for solubility: 10 percent DMSO in water, estimated by turbidity, read-out: solubility in 10 percent DMSO solution at pH=7.4
Method: To obtain cyclic peptides, solutions of the R2 and R2(313-4PM/HI, 325Q/D) V3 35-mers in dimethylsulfoxide (DMSO), 10 mg/ml, were diluted 1:10 in water at room temperature or 37° C. and the pH was adjusted to 8.5 with ammonium hydroxide. These solutions were aerated by bubbling air through the solutions for periods ≧1 hour. Following aeration, the pH was adjusted to 7.4 using hydrochloric acid. A portion of the R2 35-mer peptide precipitated during these procedures. To obtain an approximate quantitation of the amount of R2 V3 35-mer that remained in solution, the turbidity of the suspension was determined at 480 nm wavelength visible light using a spectrophotometer. The spectrophotometer was blanked with a solution of 10 percent DMSO in water, and a standard curve was produced using slurries of known amounts of the 35-mer peptide suspended in water. The amount of precipitate estimated by turbidity was subtracted from the amount of peptide added at the beginning of the preparation procedure to estimate the amount remaining in solution. […] Peptides were sterilized by passage through 0.22μ pore size filters prior to use.

| Molecule | solubility (pH 7.4, processed at 37° C.) [µg/mL] | solubility (pH 7.4, processed at room temperature) [µg/mL] | solubility in water (water) |
| --- | --- | --- | --- |
| CC[C@H](C)[C@@H]1NC(=O)[C@H](CC(=O)O)NC(=O)CNC(=O)[C@H]([C@@H](C)CC)NC(=O)[C@H]([C@@H](C)CC)NC(=O)[C@H](CCC(N)=O)NC(=O)CNC(=O)[C@H]([C@@H](C)O)NC(=O)[C@H]([C@@H](C)O)NC(=O)[C@H](Cc2ccc(O)cc2)NC(=O)[C@H](Cc2ccccc2)NC(=O)[C@H](C)NC(=O)[C@H](CCCNC(=N)N)NC(=O)CNC(=O)[C@@H]2CCCN2C(=O)CNC(=O)[C@H](CCSC)NC(=O)[C@@H]2CCCN2C(=O)[C@H]([C@@H](C)CC)NC(=O)[C@H](CO)NC(=O)[C@H](CCCCN)NC(=O)[C@H](CCCNC(=N)N)NC(=O)[C@H]([C@@H](C)O)NC(=O)[C@H](CC(N)=O)NC(=O)[C@H](CC(N)=O)NC(=O)[C@H](CC(N)=O)NC(=O)[C@@H]2CCCN2C(=O)[C@H](CCCNC(=N)N)NC(=O)[C@H](CO)NC(=O)[C@@H](N)CSSC[C@@H](C(=O)O)NC(=O)[C@H](Cc2c[nH]cn2)NC(=O)[C@H](C)NC(=O)[C@H](CCC(N)=O)NC(=O)[C@H](CCCNC(=N)N)NC1=O [cyclic 35-mer R2 V3 peptide] (H-CSRPNNNTRKSIPMGPGRAFYTTGQIIGDIRQAHC-OH; disulfide 1-35; N-terminus and C-terminus assumed) | 850 to 900 (≈ 220 to 233 µM) | 300 to 350 (≈ 77.7 to 90.7 µM) | – |
| CSRPNNNTRKSIPMGPGRAFYTTGQIIGDIRQAHC (Human immunodeficiency virus type 1; R2 strain V3 domain) [R2 V3 35-mer] | – | – | insoluble in water |
